Results from patent US11096985B2, “Antimicrobial peptides, their variants and uses” (priority 2015, dated 2021).
≈ marks a conversion by molar mass, not a printed value. Entries after “also recorded” stand apart in the source; their conditions may differ. Where a SMILES comes first, the peptide text is derived from it.

Experiments:
[1] = tested on: Escherichia coli (ATCC 25922); assay type: cell-based; conditions: ATCC 25922
Description: (§1) Minimum inhibition concentrations (MICs) were determined against Escherichia coli (ATCC 25922), Staphylococcus aureus (ATCC 25923), Klebsiella pneumoniae (ATCC 10031) and Pseudomonas aeruginosa (ATCC 27853). Also clinical strains of E. coli, K. pneumoniae, E. cloacae, P. aeruginosa, Serratia marcescens, Proteus mirabilis, S. pneumoniae, Acinetobacter baumannii, A. johnsonii and S. aureus were used for MICs assays. Additionally, clinical strains of yeast including Candida albicans, C. glabrata, C. parapsilosis and C. quillermondiae were used. The susceptibility of these microorganisms to Chain peptides were determined using micro broth dilution assay. Colonies of the respective microorganism from Muller Hinton (MH) agar plates incubated overnight were suspended in MH broth media and final concentration of microorganism was adjusted to 5.0×10^5 cfu/ml. An aliquot of 10 μl of each Chain peptide, or gentamicin, tetracycline as reference antibiotics were added in differing concentrations along with 90 μl of bacterial suspension to 96 well polypropylene plates and incubated at 37° C. for 20 to 24 hours. Concentrations of Chain peptides and reference antibiotics ranged from 0.125 to 128 μg/ml and the MICs were recorded as the lowest concentration with no visual growth of bacteria. Similarly, antifungal MICs were tested in Potato dextrose broth.

[2] = tested on: Klebsiella pneumoniae (ATCC 10031); assay type: cell-based; conditions: ATCC 10031
Description: as §1

[3] = tested on: Pseudomonas aeruginosa (ATCC 27853); assay type: cell-based; conditions: ATCC 27853
Description: as §1

[4] = tested on: Staphylococcus aureus (ATCC 25923); assay type: cell-based; conditions: ATCC 25923
Description: as §1

[5] = tested on: 4 ATCC bacterial strains; assay: Effect of NaCl on MIC; assay type: cell-based; conditions: 200 mM NaCl in MH medium
Description: (§4) Thermal stability was evaluated by diluting peptides to the concentration of 2 mg/ml in PBS buffer (pH 7.4) and incubating at different temperatures, such as +4° C., 25° C. (RT), 37° C. and 45° C., peptides stored at −20° C. were used as control. […] Peptides were also tested by diluting them at different pH values starting from pH 4 to 9. The effect of NaCl on the antimicrobial activity was tested by adding different concentrations (50, 100 and 200 mM) of NaCl to MH medium and the minimum inhibitory concentrations were tested against 4 ATCC bacterial strains.

[6] = tested on: Aspergillus flavus (DSM 1959); assay: Radial diffusion assay, antifungal, A. flavus; assay type: cell-based; conditions: 20 μg
Description: (§2) The radial diffusion assay (RDA) was carried out as described by Andersen et al. (2010). Briefly, 30 ml of 1/10 Muller-Hinton broth (MHB) supplemented with 1% agarose and 5.0×10^5 CFU/ml S. aureus or E. coli or K. pneumoniae, P. aeruginosa cells was poured into a single-well omnitray (Nunc) and overlaid with a TSP 96-well plate. One hundred μg of each synthesized peptide was tested. The peptides were also tested against Fusarium oxysporum and Verticillium dahliae, for which 1/3 potato dextrose agarose was used. To test the synergistic effect of peptides, each peptide was mixed in equimolar concentrations. Mix1 (met1-12), Mix2 (met3, 4 and 5), Mix3 (met 8, 9 and 10), Mix 4 (met11, 12) and Mix5 (8, 9, 10, 11, 12) were prepared and tested against E. coli and S. aureus. Gentamicin and vancomycin were included as positive controls for bacteria and amphotericin B was used as the control for fungi.
(§3) By using rational design techniques, we have designed variants of peptides by incorporating or replacing various amino acids in the original peptides. Thus, we have designed and modified Chain 100, Chain 200 and Chain 300 with tryptophan (W), arginine (R) and lysine (K) at various positions to improve antimicrobial activity (FIGS. 4a-c and 5a-c). In some peptides we have also used other amino acids such as Leucine (L), Cysteine (C), Isoleucine (I), Phenylalanine (F) and Alanine (A). For synthesis, 32 variants and 3 original peptides were selected based on the various parameters such as positive charge, aliphatic index and instability index. Peptides variants were tested by using radial diffusion assay against Escherichia coli (ATCC 25922), Staphylococcus aureus (ATCC 25923), Klebsiella pneumoniae (ATCC 10031) and Pseudomonas aeruginosa (ATCC 27853) (FIGS. 6a-c). The zone of inhibition ranged between 10-18 mm for Escherichia coli and Staphylococcus aureus, 6-18 mm & 8-18 mm for Pseudomonas aeruginosa and Klebsiella pneumonia respectively (Table 2). For Gentamicin it was between 22-24 mm. Antifungal activity was tested for promising antibacterial peptides (Chains 104, 105, 109, 201, 204, 306, 307, 308, 310) against Aspergillus flavus (DSM 1959) and Penicillium chrysogenum (DSM 1075). All these peptides has activity at a concentration of 20 μg, Amphotericin B was used as a positive control at 20 μg (FIG. 7).

[7] = pH 4-9, RDA
Description: as §4

[8] = +4, 25, 37 and 45° C., 14 days, PBS pH 7.4, RDA with 20 μg
Description: as §4

[9] = tested on: gram positive and negative bacteria; assay: MIC by micro broth dilution, summary over the strains tested; assay type: cell-based
Description: as §1

[10] = tested on: Penicillium chrysogenum (DSM 1075); assay: Radial diffusion assay, antifungal, P. chrysogenum; assay type: cell-based; conditions: 20 μg
Description: as §2, §3

[11] = tested on: human erythrocytes; assay type: cell-based
Description: In hemolysis assays, the ability of peptides at 128 μg/ml concentration to lyse human erythrocytes to release hemoglobin was measured. The peptides described here preferably have low hemolytic activity (0.2 to 3.8% hemolysis) in mammal body. […] These peptides are useful as antimicrobial drugs as they show little or no side effects at concentrations needed to kill bacteria.
Minimum inhibition concentrations (MICs) were tested by microbroth dilution method and Chain 104, 105 and 109 inhibited the growth of Escherichia coli (ATCC 25922), Staphylococcus aureus (ATCC 25923), Klebsiella pneumoniae (ATCC 10031) and Pseudomonas aeruginosa (ATCC 27853) between 1-8 μg/ml respectively (Tables 3a, 3b and 3c). The membranolytic activities of the peptides were tested by measuring the release of hemoglobin from erythrocytes of fresh blood donated by voluntiers. Hemoglobin levels were determined spectrometrically by taking OD at 540 nm by following the protocol of Schmidtchen et al., 2011.

[12] = tested on: E. coli; assay: Transmission electron microscopy of treated E. coli; assay type: cell-based, Escherichia coli; conditions: 10 μg/ml, 37° C., 1 h
Description: E. coli and S. aureus were grown to mid-exponential phase and diluted in Muller Hinton broth (MHB) medium to a cell density of 0.1 by taking absorbance at 600 nm and incubated at 37° C. for 1 h with 10 μg/ml Chain peptides. After incubation, an equal volume of 2% glutaraldehyde in 0.1 M phosphate buffer was added and the cells were pelleted by centrifugation at 5000 rpm for 2 minutes, and the cell pellet was fixed with 1% glutaraldehyde in 0.1 M phosphate. Cells were post-fixed with osmium tetroxide, dehydrated using increasing concentrations of acetone or alcohol, and embedded in plastic resin (Epon). Ultrathin sections (70-80 nm) were post-stained with uranyl acetate and lead citrate before observation with TEM. Microscopy was performed with a Tecnai G2 Spirit 120 kV TEM with Veleta and Quemesa CCD cameras.

[13] = tested on: S. aureus; assay: Antibacterial activity analysis of En-MAP1 protein; assay type: cell-based, Staphylococcus aureus
Description: Both folded and unfolded proteins were tested for antibacterial activity against S. aureus by pipetting 10 μg of protein on the S. aureus culture on an LB plate. The activity was also tested in folded and unfolded protein digested with trypsin in 0.01% acetic acid at concentrations of 30 and 60 μg/ml.

| Molecule | Minimum inhibitory concentration, Escherichia coli (ATCC 25922) [1] [mg/L] | Minimum inhibitory concentration, Klebsiella pneumoniae (ATCC 10031) [2] [mg/L] | Minimum inhibitory concentration, Pseudomonas aeruginosa (ATCC 27853) [3] [mg/L] | Minimum inhibitory concentration, Staphylococcus aureus (ATCC 25923) [4] [mg/L] | increase in MIC values with NaCl [5] [fold] | antifungal activity against Aspergillus flavus [6] | pH stability (zone of inhibition) [7] | thermostability (antibacterial activity kept after incubation) [8] | activity against the four ATCC strains [9] | antifungal activity against Penicillium chrysogenum [10] | side effects to humans as tested by hemolysis assay [11] | TEM observation of E. coli cells [12] | antibacterial activity against S. aureus, trypsin digest of folded protein ([13]; folded full protein digested with trypsin) | antibacterial activity against S. aureus ([13]; folded protein or expressed fragments) | antibacterial activity against S. aureus, trypsin digest of unfolded protein ([13]; unfolded protein digested with trypsin) |
| --- | --- | --- | --- | --- | --- | --- | --- | --- | --- | --- | --- | --- | --- | --- | --- |
| CC[C@H](C)[C@H](NC(=O)[C@H](CCCCN)NC(=O)[C@H](CCCNC(=N)N)NC(=O)[C@H](Cc1c[nH]c2ccccc12)NC(=O)[C@H](CCCNC(=N)N)NC(=O)[C@@H](NC(=O)[C@@H](NC(=O)[C@H](CCCNC(=N)N)NC(=O)[C@@H](N)Cc1c[nH]c2ccccc12)[C@@H](C)CC)C(C)C)C(=O)N[C@@H](CCCCN)C(=O)N[C@@H](CCCNC(=N)N)C(=O)O [Chain209] (H-WRIVRWRKIKR-OH; N-terminus and C-terminus assumed) | 64 (≈ 40.1 µM) | >128 | >128 | >128 | – | – | – | – | – | – | – | – | – | – | – |
| CC(C)C[C@H](NC(=O)[C@H](CCCNC(=N)N)NC(=O)[C@H](Cc1c[nH]c2ccccc12)NC(=O)[C@H](CCCNC(=N)N)NC(=O)[C@H](CCCCN)NC(=O)[C@H](CC(C)C)NC(=O)[C@@H](N)CCCNC(=N)N)C(=O)N[C@@H](Cc1ccccc1)C(=O)N[C@@H](CCCNC(=N)N)C(=O)N[C@@H](CCCCN)C(=O)N[C@@H](CCCNC(=N)N)C(=O)O [Chain306] (H-RLKRWRLFRKR-OH; N-terminus and C-terminus assumed) | – | – | – | – | 2 | has activity; also recorded: particularly active | not hindered by pH | not hindered by pH or temperature even upto 45 °C for over 14 days | very active | has activity; also recorded: particularly active | – | – | – | – | – |
| CC(C)C[C@H](NC(=O)[C@H](CC(C)C)NC(=O)[C@H](Cc1ccccc1)NC(=O)[C@H](Cc1c[nH]c2ccccc12)NC(=O)[C@H](CCCCN)NC(=O)[C@H](CC(C)C)NC(=O)[C@@H](N)CCCNC(=N)N)C(=O)N[C@@H](Cc1ccccc1)C(=O)N[C@@H](CCCNC(=N)N)C(=O)N[C@@H](CCCCN)C(=O)N[C@@H](CCCNC(=N)N)C(=O)O [Chain308] (H-RLKWFLLFRKR-OH; N-terminus and C-terminus assumed) | – | – | – | – | 2 | has activity; also recorded: particularly active | not hindered by pH | not hindered by pH or temperature even upto 45 °C for over 14 days | very active | has activity; also recorded: particularly active | little side effects | almost all E. coli cells had lost their rod-shaped structural integrity | – | – | – |
| En-MAP1: protein of 549 amino acids from an endophyte of Empetrum nigrum, GenBank KC466596 (protein, listed as Empetrum nigrum) MRLVAHPVPDAPLYALMIKACSMGIPQPNDNLWKPRNPLLAKEEKTSKRGRTAPDTERALDLFREMTLRYNIRPTAEVYTAIIAACVKRDDMYDKGFGLFKKMVELERNRMSSEGHDSTSFAPTRATYNALLRGCARNKDLLRARWILAEMLRTAQAKWQEFMEKSKKGEEGVQEWELLEVEEMRPDTNTMAFLFYTYASHTTSSKAVPETEGKKELEGKAEERASEVTSVSPVSEPPEPMDESKLVYSLPTSSQAILREVTSLLDRIKSDQGQQSNLLSSVQINSKLLNSYIAVLSAHCRSSQVVERISEVVVGTKENPKSLFEETGTSVNGYTCFTVIDACGMMEHSPDTYHLACEMWQRWLSLVENATFHRENPLKAKEIGLDSRTISDCWSAMIRLHAKYNQVDEAMKLVHEFARLYPPASLFNSLTFEPSSTSSSSLSPRKGVQEISPLFSSTSLTHSIRGRDISRIQNTMSQDPTLQFRAVQILHLRLVELETRPKDLAYLSWLLKSYEHQLQPKRPKSLQGDLFTSRQAAYNRIVQQRTSSR | – | – | – | – | – | – | – | – | – | – | – | – | antibacterial activity was observed for up to two hours after digestion | no activity was observed | No activity was detected |
